The values below come from ChEMBL document CHEMBL1128093, “Discovery and optimization of indole pyrrolothiazole paf antagonists” (Bioorg Med Chem Lett, 1995).

Common to all, as to assay type: functional
Experiment [1] deals with Rattus norvegicus. The experiment can be described thus: In vivo activity by inhibition of PAF-induced cutaneous vascular permeability in rats after intravenous administration.
Experiment [2] deals with Rattus norvegicus. The experiment can be described thus: In vivo activity by inhibition of PAF-induced cutaneous vascular permeability in rats after peroral administration. The settings on record: po.
Experiment [3] relates to Rattus norvegicus. The experiment can be described thus: In vivo activity by inhibition of PAF-induced cutaneous vascular permeability in rats after peroral administration of 30 mg/kg dose. The settings on record: route oral.
In experiment [4] the test system is Rattus norvegicus. Put plainly: In vivo activity by inhibition of PAF-induced cutaneous vascular permeability in rats after intravenous administration of 1 mg/kg dose.
For experiment [5], the system named is Rattus norvegicus. The experiment can be described thus: In vivo activity by inhibition of PAF-induced cutaneous vascular permeability in rats after peroral administration of 10 mg/kg dose. The settings on record: route oral.
In experiment [6] the test system is Rattus norvegicus. The experiment can be described thus: xIn vivo activity by inhibition of PAF-induced cutaneous vascular permeability in rats after peroral administration. The settings on record: po.

Take `CN(C)C(=O)n1cc(C(=O)c2ccn3c2CSC3c2cccnc2)c2ccc(Oc3ccc(F)cc3)cc21` (stereo not given): the ED50 in experiment [1] was determined as 0.03 mg/kg.
In the case of `O=C(O)CCn1cc(C(=O)c2ccn3c2CSC3c2cccnc2)c2ccc(-c3ccc(F)cc3)cc21` (stereo not given), the figures for the ED50 in experiment [2] and in experiment [1] were 5.1 mg/kg and 0.1 mg/kg, respectively.
The corresponding values for `O=C(c1ccn2c1CSC2c1cccnc1)c1cn(CCO)c2cc(-c3ccc(F)cc3)ccc12` (stereo not given) are 0.76 mg/kg and 0.1 mg/kg.
The corresponding values for `CN(C)C(=O)n1cc(C(=O)c2ccn3c2CSC3c2cccnc2)c2ccc(-c3ccc(F)cc3)cc21` (stereo not given) are 0.06 mg/kg and 0.006 mg/kg.
Regarding `CNC(=O)n1cc(C(=O)c2ccn3c2CSC3c2cccnc2)c2ccc(-c3ccc(F)cc3)cc21` (stereo not given), the 50% effect level in experiment [2] (ED50) was put at a dose of 0.12 mg/kg.
For `CN(C)C(=O)n1cc(C(=O)c2ccn3c2CSC3c2cccnc2)c2ccc(-c3ccccc3)cc21` (stereo not given), the ED50 came to 0.06 mg/kg in experiment [2] and 0.03 mg/kg in experiment [1].
Turning to `CN(C)C(=O)n1cc(C(=O)c2ccn3c2CSC3c2cccnc2)c2ccccc21` (stereo not given), the inhibition in vivo at 30 mg/kg in experiment [3] is 34%.
`CN(C)C(=O)n1cc(C(=O)c2ccn3c2CSC3c2cccnc2)c2ccc(Cc3ccccc3)cc21` (stereo not given) returned a 50% effective dose (ED50) in experiment [1] of 0.09 mg/kg.
`CCNC(=O)n1cc(C(=O)c2ccn3c2CSC3c2cccnc2)c2ccc(-c3ccc(F)cc3)cc21` (stereo not given) yielded an ED50 in experiment [1] of 0.18 mg/kg. This ED50 lies about 2-fold higher than the previous one.
As to `CN(C)C(=O)n1cc(C(=O)c2ccn3c2CSC3c2cccnc2)c2ccc(Cl)cc21` (stereo not given), in experiment [2], the ED50 worked out at 1.4 mg/kg. The compound further registered an inhibition in vivo at 1 mg/kg in experiment [4] of 42%.
For the compound `CN(C)C(=O)Cn1cc(C(=O)c2ccn3c2CSC3c2cccnc2)c2ccc(-c3ccc(F)cc3)cc21` (stereo not given), the ED50 was 0.12 mg/kg in experiment [2] and 0.009 mg/kg in experiment [1].
Consider `CN(C)C(=O)n1cc(C(=O)c2ccn3c2CSC3c2cccnc2)c2ccc(OCc3ccccc3)cc21` (stereo not given), for which the 50% effect level in experiment [2] (ED50) was put at a dose of 3.3 mg/kg.
For the compound `NNC(=O)n1cc(C(=O)c2ccn3c2CSC3c2cccnc2)c2ccc(-c3ccc(F)cc3)cc21` (stereo not given), the figures for the ED50 in experiment [2] and in experiment [1] were 0.57 mg/kg and 0.04 mg/kg, respectively.
As for `Cn1cc(C(=O)c2ccn3c2CSC3c2cccnc2)c2ccc(-c3ccc(F)cc3)cc21` (stereo not given), in experiment [1], it took a dose of 0.09 mg/kg to reach the 50% effect level (ED50).
In turn, `NCCn1cc(C(=O)c2ccn3c2CSC3c2cccnc2)c2ccc(-c3ccc(F)cc3)cc21` (stereo not given) came in with an ED50 in experiment [2] of 1.3 mg/kg.
On the same count and under the same terms, in the case of `O=C(c1ccn2c1CSC2c1cccnc1)c1c[nH]c2cc(-c3ccc(F)cc3)ccc12` (stereo not given) it was 6.4 mg/kg.
In the case of `CN(C)C(=O)n1cc(C(=O)c2ccn3c2CSC3c2cccnc2)c2ccc(-c3cccnc3)cc21` (stereo not given), in experiment [5], the inhibition in vivo at 10 mg/kg was 58%.
In turn, `CN(C)C(=O)n1cc(C(=O)c2ccn3c2CSC3c2cccnc2)c2ccc(Br)cc21` (stereo not given) showed an ED50 in experiment [2] of 1.5 mg/kg. For the same compound, 1 mg/kg produced 41% inhibition in vivo in experiment [4].
`CN(C)C(=O)n1cc(C(=O)c2ccn3c2CSC3c2cccnc2)c2ccc(Sc3ccc(F)cc3)cc21` (stereo not given): it took a dose of 0.27 mg/kg to reach the 50% effect level in experiment [1] (ED50).
In experiment [6], `CN(C)S(=O)(=O)n1cc(C(=O)c2ccn3c2CSC3c2cccnc2)c2ccc(-c3ccc(F)cc3)cc21` (stereo not given) gave an ED50 of 5.5 mg/kg.
Take `NC(=O)n1cc(C(=O)c2ccn3c2CSC3c2cccnc2)c2ccc(-c3ccc(F)cc3)cc21` (stereo not given): the results for the ED50 in experiment [2] and in experiment [1] were 0.06 mg/kg and 0.01 mg/kg, respectively.
